Results: ChEMBL document CHEMBL4619751, “Synthesis of novel spirobibenzopyrans as potent anticancer leads inducing apoptosis in HeLa cells” (Bioorg Med Chem Lett, 2020)
Active and inactive are the calls of the source. The calls are words filed in the database; no cut-off is given here.

Experiments:
HeLa [1] = test: Cytotoxicity against human HeLa cells assessed as cell proliferation at 10 uM by MTT assay relative to control; format: functional; conditions: read-out: Activity
HeLa [2] = test: Induction of apoptosis in human HeLa cells assessed as nuclear fragmentation by acridine oranga/ethidium bromide staining based assay; format: functional, cell-based
HeLa [3] = test: Cell cycle arrest in human HeLa cells assessed as accumulation at S phase at 10 uM measured after 48 hrs by FACS analysis; format: functional, cell-based
HeLa [4] = test: Cell cycle arrest in human HeLa cells assessed as accumulation at S phase at 50 uM measured after 48 hrs by FACS analysis; format: functional, cell-based
HeLa [5] = test: Cell cycle arrest in human HeLa cells assessed as accumulation at middle G0/G1 phase at 10 uM measured after 48 hrs by FACS analysis; format: functional, cell-based
HeLa [6] = test: Cytotoxicity against human HeLa cells assessed as growth inhibition by MTT assay; format: functional, cell-based
HeLa [7] = test: Cell cycle arrest in human HeLa cells assessed as accumulation at sub G0/G1 phase at 10 uM measured after 48 hrs by FACS analysis; format: functional, cell-based
HeLa [8] = test: Cell cycle arrest in human HeLa cells assessed as accumulation at sub G0/G1 phase at 50 uM measured after 48 hrs by FACS analysis; format: functional, cell-based
HeLa [9] = test: Induction of DNA damage in human HeLa cells assessed as tail DNA formation at IC50 by alkaline Comet assay; format: functional
HeLa [10] = test: Induction of apoptosis in human HeLa cells assessed as chromatin condensation by acridine oranga/ethidium bromide staining based assay; format: functional, cell-based
HeLa [11] = test: Induction of DNA damage in human HeLa cells assessed as inhibition of DNA replication; format: functional, cell-based
HeLa [12] = test: Cell cycle arrest in human HeLa cells assessed as accumulation at early G0/G1 phase at 10 uM measured after 48 hrs by FACS analysis; format: functional, cell-based

Row | SMILES | growth at 10 µM (HeLa [1]) [%] | IC50 (HeLa [6]) [µM] | further results
1 | C1=C2CCCC3=Cc4ccccc4OC23Oc2ccccc21 | 77 |  | 
2 | COc1ccc2c(c1)C=C1CCCC3=Cc4cc(OC)ccc4OC13O2 | 46.6 | 10.7 | Activity (HeLa [2]): Active; Activity (HeLa [3]): Active; Activity (HeLa [4]): inactive; Activity (HeLa [5]): Active; Activity (HeLa [7]): Active; Activity (HeLa [8]): inactive
3 | Clc1cc(Cl)c2c(c1)C=C1CCCCC3=Cc4cc(Cl)cc(Cl)c4OC13O2 | 102 |  | 
4 | O=c1[nH]cc(F)c(=O)[nH]1 [FLUOROURACIL] | 73.7 | 15 | Activity (HeLa [9]): 6.91 um
5 | Brc1ccc2c(c1)C=C1CCCCC3=Cc4cc(Br)ccc4OC13O2 | 111 |  | 
6 | Clc1ccc2c(c1)C=C1CSCC3=Cc4cc(Cl)ccc4OC13O2 | 105 |  | 
7 | COc1ccc2c(c1)OC13Oc4cc(OC)ccc4C=C1CCCCC3=C2 | 108 |  | 
8 | COc1ccc2c(c1)OC13Oc4cc(OC)ccc4C=C1CCCC3=C2 | 62.1 | 13.6 | Activity (HeLa [9]): 3.32 um; Activity (HeLa [3]): Active; Activity (HeLa [10]): Active; Activity (HeLa [7]): Active; Activity (HeLa [11]): Active
9 | C1=C2CCCCC3=Cc4ccccc4OC23Oc2ccccc21 | 80.2 |  | 
10 | COc1ccc2c(c1)C=C1CCCCC3=Cc4cc(OC)ccc4OC13O2 | 59.3 | 12.2 | Activity (HeLa [2]): Active; Activity (HeLa [12]): Active; Activity (HeLa [7]): Active
11 | Clc1ccc2c(c1)C=C1CCCCC3=Cc4cc(Cl)ccc4OC13O2 | 90.1 |  | 
12 | Clc1ccc2c(c1)C=C1CCCC3=Cc4cc(Cl)ccc4OC13O2 | 105 |  | 
